Results published in the AptaBench aptamer set (doi:10.1093/nar/gkaf219).
Each block holds one compound with its values, some of them ahead of it.

Legend:
Details in all cases: 10 mM Tris-HCl, pH 7.4
[1] = system: DNA aptamer or structured DNA CTTACGACAAGGGATGTCTGTTAGTGTGTCGGTGCATTGTCGTAAG
[2] = system: DNA aptamer or structured DNA GGGACGACGGCAATTGCCGGTGCAGGATCTGAATTATCGTCGTCCC
[3] = system: DNA aptamer or structured DNA CTTACGACTAGGTGGGGGTCGGCCATGGGAGTGGGGTAGTCGTAAG
[4] = system: DNA aptamer or structured DNA CTTACGACGCGGACGTTGTGGGGCGTGGCAGTCGGTGGGTCGTAAG
[5] = system: DNA aptamer or structured DNA CTTACGACGGGTGCCGTTGGTTCTAGGGGTAGGATGGCGTCGTAAG
[6] = system: DNA aptamer or structured DNA CTTACGACTTTTGGGTGTCTGGGTGGGAGGTCGTAAG
[7] = system: DNA aptamer or structured DNA CTTACGACGACCTAGTGGGGGTAGTTATAGTTGGGTGAGTCGTAAG
[8] = system: DNA aptamer or structured DNA CTTACGACAAACTTTTGGGTATCTGGTTGGGAGGTTCTGTCGTAAG
[9] = system: DNA aptamer or structured DNA CTTACGACTAGGTGTGGGTCGGCCATTAGTGGAGGGTAGTCGTAAG
[10] = system: DNA aptamer or structured DNA CTTACGACACAGGGCGTGGAGTGGCTGGGCTTCAAGGGGTCGTAAG
[11] = system: DNA aptamer or structured DNA CTTACGACTTGTTCTGAGGGTCAACGGTGGTGTAGTTAGTCGTAAG
[12] = system: DNA aptamer or structured DNA CTTACGACGGGTGCTGTTGGTTCTAGGGTTAGGATGGCGTCGTAAG
[13] = system: DNA aptamer or structured DNA CTTACGACTGGGATGTGTTGTTAGTGCTGTCGGATCCGGTCGTAAG
[14] = system: DNA aptamer or structured DNA CTTACGACAAGGGATGTGTAGTTAGTGGTCGGATCCGAGTCGTAAG
[15] = system: DNA aptamer or structured DNA CTTACGACACAGGGGGTGGCTAGGGTGCGCGGGAGCTGGTCGTAAG
[16] = system: DNA aptamer or structured DNA CTTACGACTAGGTGTGGGTCGGCTGCTTTCGCAGGGTAGTCGTAAG
[17] = system: DNA aptamer or structured DNA GGGACGACGGCACGAGGTTATTCGTTGGTTGCACTGCGCTGGGAGGTAGTCGTCCC
[18] = system: DNA aptamer or structured DNA CTTACGACAAGGGATGTTTGTTAGTGTGTCGGATCTATGTCGTAAG
[19] = system: DNA aptamer or structured DNA GGGACGACGCTAGGGGATCTTTTGGGGTTTGTATGGGCGTCGTCCC
[20] = system: DNA aptamer or structured DNA CTTACGACCTGCTCTGAGGGTCAACGGTGGTGTAGTCGGTCGTAAG
[21] = system: DNA aptamer or structured DNA GGGACGACGGGACGGTAAGTGGCAGGTCGTTGGAATTTCTACTGTATCGTCGTCCC
[22] = system: DNA aptamer or structured DNA GGGACGACGGGGCTCTTACCCTGGAGGGTAGAAGGGGAGGTGTGGTCAGTCGTCCC
[23] = system: DNA aptamer or structured DNA CTTACGACGGGGGTGTGGCTAGGGGTGGCGCGGGATCCGTCGTAAG
[24] = system: DNA aptamer or structured DNA CTTACGACATGGGATGTGTAGTTAGTGGTCGGATCCGAGTCGTAAG
[25] = system: DNA aptamer or structured DNA CTTACGACTAGTTCCGGGTAGGGGTAGGTGTGGTTGTGGTCGTAAG
[26] = system: DNA aptamer or structured DNA GGGACGACTAGGGCTTAGGGTTTAGGTGTGGGGTGTAAGTCGTCCC
[27] = system: DNA aptamer or structured DNA CTTACGACAGGGGTACCCGCGTATAACGTGGCGTTCGTGTCGTAAG
[28] = system: DNA aptamer or structured DNA GGGACGACGGAGGTGTAGGGTTTAGGTAGTGGTTTGAAGTCGTCCC
[29] = system: DNA aptamer or structured DNA CTTACGACGGGGTGGGGGCGGCTTCCCATGGGAGGGGTGTCGTAAG
[30] = system: DNA aptamer or structured DNA GGGACGACGGAGGTGTAGGGTTTAGGTAGTGGGTTGAAGTCGTCCC
[31] = system: DNA aptamer or structured DNA CTTACGACACTGGCAGGAGGGTCGGGTGTGGGAACGTGGTCGTAAG
[32] = system: DNA aptamer or structured DNA GGGACGACGGGATTCGGATCGTGGAACAGTGCCTCGTCGTCGTCCC
[33] = system: DNA aptamer or structured DNA CTTACGACACAGGGTGTGTTGTGCTCAGTGGTGTATGTGTCGTAAG
[34] = system: DNA aptamer or structured DNA GGGACGACGGTTGGCTTGGGTCGGGTGTGGGTGCGGCGTCGTCCC
[35] = system: DNA aptamer or structured DNA CTTACGACCAGGCTACGTGGGGGAGGGTGGGAAGACGGGTCGTAAG
[36] = system: DNA aptamer or structured DNA GGGACGACGGTTGGCATTGGGTCGGGTGTGGGGGCGGCGTCGTCCC
For binding call in this document: call rule not given here.

binding call [1]: no binding
binding call [2]: binds
binding call [3]: no binding
binding call [4]: no binding
binding call [5]: binds
binding call [6]: no binding
binding call [7]: no binding
binding call [8]: no binding
binding call [9]: no binding
binding call [10]: no binding
binding call [11]: no binding
binding call [12]: binds
binding call [13]: no binding
binding call [14]: no binding
binding call [15]: binds
binding call [16]: no binding
binding call [17]: binds
binding call [18]: no binding
binding call [19]: binds
binding call [20]: no binding
binding call [21]: binds
binding call [22]: no binding
binding call [23]: binds
binding call [24]: binds
binding call [25]: no binding
Compound: NCCc1ccc(O)c(O)c1

Compound: COC(=O)[C@@H]1C2CCC(C[C@@H]1OC(=O)c1ccccc1)N2C (stereo partly drawn)
Kd [1]: 330 nM
binding call [2]: no binding
Kd [3]: 270 nM
Kd [4]: 372 nM
Kd [5]: 1350 nM
Kd [6]: 67 nM
Kd [9]: 735 nM
binding call [26]: no binding
binding call [27]: no binding
binding call [28]: binds
Kd [10]: 123 nM
Kd [11]: 22 nM
binding call [29]: no binding
Kd [12]: 57 nM
Kd [13]: 204 nM
Kd [14]: 2650 nM
Kd [15]: 76 nM
Kd [16]: 350 nM
binding call [17]: no binding
binding call [30]: binds
Kd [18]: 115 nM
binding call [19]: binds
binding call [31]: no binding
Kd [20]: 189 nM
binding call [21]: no binding
binding call [32]: no binding
binding call [22]: binds
Kd [23]: 185 nM
binding call [33]: no binding
binding call [34]: no binding
binding call [35]: no binding
Kd [25]: 61 nM

Compound: COc1ccc2c3c1O[C@H]1C(=O)CC[C@@]4(O)[C@@H](C2)N(C)CC[C@]314
binding call [3]: no binding
binding call [4]: no binding
binding call [36]: no binding
binding call [7]: no binding
binding call [8]: no binding
binding call [9]: no binding
binding call [26]: no binding
binding call [28]: no binding
binding call [10]: no binding
binding call [11]: no binding
binding call [12]: no binding
binding call [13]: no binding
binding call [14]: no binding
binding call [15]: binds
binding call [16]: no binding
binding call [30]: no binding
binding call [18]: no binding
binding call [20]: no binding
binding call [23]: no binding
binding call [34]: no binding
binding call [24]: no binding
binding call [25]: no binding

Compound: CC(=O)Oc1ccc2c3c1O[C@H]1[C@@H](OC(C)=O)C=C[C@H]4[C@@H](C2)N(C)CC[C@@]341
binding call [3]: no binding
binding call [36]: no binding
binding call [5]: no binding
binding call [6]: no binding
binding call [7]: no binding
binding call [8]: no binding
binding call [26]: binds
binding call [27]: no binding
binding call [28]: no binding
binding call [10]: no binding
binding call [11]: no binding
binding call [29]: no binding
binding call [13]: no binding
binding call [15]: no binding
binding call [16]: no binding
binding call [30]: no binding
binding call [31]: binds
binding call [20]: no binding
Kd [32]: 850 nM
binding call [23]: binds
binding call [33]: binds
binding call [34]: no binding
binding call [35]: binds
binding call [25]: no binding
